# The source made the active and inactive calls. No rule for the calls is given here.
# System: CCRIS mutagenicity, Ames/micronucleus/aberration tests
# Experiment: CCRIS mutagenicity studies
compound,measurement,setting,value
Cc1ccccc1N,mutagenic call,"End Point: IN VIVO MICRONUCLEUS, Test System: HEPATOCYTES, Species: RAT, Strain/Sex: FISHER 344 OR SD/MALE, Route: ORAL OR IP",inactive; negative
same,mutagenic call,"End Point: IN VIVO MICRONUCLEUS, Test System: PERIPHERAL BLOOD RETICULOCYTES, Species: RAT, Strain/Sex: FISHER 344 OR SD/MALE, Route: ORAL OR IP",active; positive
same,mutagenic call,"Test System: AMES SALMONELLA TYPHIMURIUM, Strain/Indicator: TA97, Metabolic Activation: HAMSTER LIVER S-9, AROCLOR 1254 (10 OR 30%), Method: PREINCUBATION",inactive; negative
same,mutagenic call,"Test System: AMES SALMONELLA TYPHIMURIUM, Strain/Indicator: TA97, Metabolic Activation: NONE, Method: PREINCUBATION",inactive; negative
same,mutagenic call,"Test System: AMES SALMONELLA TYPHIMURIUM, Strain/Indicator: TA97, Metabolic Activation: NONE, Method: STANDARD PLATE",inactive; negative
same,mutagenic call,"Test System: AMES SALMONELLA TYPHIMURIUM, Strain/Indicator: TA97, Metabolic Activation: RAT LIVER S-9, AROCLOR 1254 (10 OR 30%), Method: PREINCUBATION",inactive; negative
same,mutagenic call,"Test System: AMES SALMONELLA TYPHIMURIUM, Strain/Indicator: TA97, Metabolic Activation: RAT, LIVER, S-9, PHENOBARBITAL AND 5,6-BENZOFLAVONE, Method: PREINCUBATION",inactive; negative
same,mutagenic call,"Test System: AMES SALMONELLA TYPHIMURIUM, Strain/Indicator: TA97, Metabolic Activation: S-9, Method: STANDARD PLATE",inactive; negative
same,mutagenic call,"Test System: AMES SALMONELLA TYPHIMURIUM, Strain/Indicator: TA98, Metabolic Activation: HAMSTER LIVER S-9, AROCLOR 1254 (10 OR 30%), Method: PREINCUBATION",inactive; negative
same,mutagenic call,"Test System: AMES SALMONELLA TYPHIMURIUM, Strain/Indicator: TA98, Metabolic Activation: HAMSTER, LIVER, S-9, AROCLOR 1254 (10%), Method: PREINCUBATION",inactive; negative
same,mutagenic call,"Test System: AMES SALMONELLA TYPHIMURIUM, Strain/Indicator: TA98, Metabolic Activation: HAMSTER, LIVER, S-9, AROCLOR 1254 (30%), Method: PREINCUBATION",inactive; negative
same,mutagenic call,"Test System: AMES SALMONELLA TYPHIMURIUM, Strain/Indicator: TA98, Metabolic Activation: HAMSTER, LIVER, S-9, SODIUM PHENOBARBITAL AND 5,6-BENZOFLAVONE, Method: PREINCUBATION",inactive; negative
same,mutagenic call,"Test System: AMES SALMONELLA TYPHIMURIUM, Strain/Indicator: TA98, Metabolic Activation: HAMSTER, LIVER, S-9, Method: PREINCUBATION (PRIVAL METHOD)",active; positive
same,mutagenic call,"Test System: AMES SALMONELLA TYPHIMURIUM, Strain/Indicator: TA98, Metabolic Activation: NONE, Method: PREINCUBATION",inactive; negative
same,mutagenic call,"Test System: AMES SALMONELLA TYPHIMURIUM, Strain/Indicator: TA98, Metabolic Activation: NONE, Method: STANDARD PLATE",inactive; negative
same,mutagenic call,"Test System: AMES SALMONELLA TYPHIMURIUM, Strain/Indicator: TA98, Metabolic Activation: RAT LIVER S-9, AROCLOR 1254 (10 OR 30%), Method: PREINCUBATION",inactive; negative
same,mutagenic call,"Test System: AMES SALMONELLA TYPHIMURIUM, Strain/Indicator: TA98, Metabolic Activation: RAT, LIVER, S-9, AROCLOR 1254 (10%), Method: PREINCUBATION",inactive; negative
same,mutagenic call,"Test System: AMES SALMONELLA TYPHIMURIUM, Strain/Indicator: TA98, Metabolic Activation: RAT, LIVER, S-9, AROCLOR 1254 (30%), Method: PREINCUBATION",inactive; negative
same,mutagenic call,"Test System: AMES SALMONELLA TYPHIMURIUM, Strain/Indicator: TA98, Metabolic Activation: RAT, LIVER, S-9, AROCLOR 1254 + 200 UG NORHARMAN, Method: STANDARD PLATE",active; positive
same,mutagenic call,"Test System: AMES SALMONELLA TYPHIMURIUM, Strain/Indicator: TA98, Metabolic Activation: RAT, LIVER, S-9, AROCLOR 1254, Method: PREINCUBATION",inactive; negative
same,mutagenic call,"Test System: AMES SALMONELLA TYPHIMURIUM, Strain/Indicator: TA98, Metabolic Activation: RAT, LIVER, S-9, PHENOBARBITAL AND 5,6-BENZOFLAVONE, Method: PREINCUBATION",inactive; negative
same,mutagenic call,"Test System: AMES SALMONELLA TYPHIMURIUM, Strain/Indicator: TA98, Metabolic Activation: S-9, Method: STANDARD PLATE",inactive; negative
same,mutagenic call,"Test System: AMES SALMONELLA TYPHIMURIUM, Strain/Indicator: TA100, Metabolic Activation: HAMSTER LIVER S-9, AROCLOR 1254 (10%), Method: PREINCUBATION",inactive; negative
same,mutagenic call,"Test System: AMES SALMONELLA TYPHIMURIUM, Strain/Indicator: TA100, Metabolic Activation: HAMSTER LIVER S-9, AROCLOR 1254 (30%), Method: PREINCUBATION",active; positive
same,mutagenic call,"Test System: AMES SALMONELLA TYPHIMURIUM, Strain/Indicator: TA100, Metabolic Activation: HAMSTER, LIVER, S-9, AROCLOR 1254 (10%), Method: PREINCUBATION",inactive; negative
same,mutagenic call,"Test System: AMES SALMONELLA TYPHIMURIUM, Strain/Indicator: TA100, Metabolic Activation: HAMSTER, LIVER, S-9, AROCLOR 1254 (30%), Method: PREINCUBATION",active; positive
same,mutagenic call,"Test System: AMES SALMONELLA TYPHIMURIUM, Strain/Indicator: TA100, Metabolic Activation: HAMSTER, LIVER, S-9, SODIUM PHENOBARBITAL AND 5,6-BENZOFLAVONE, Method: PREINCUBATION",inactive; negative
same,mutagenic call,"Test System: AMES SALMONELLA TYPHIMURIUM, Strain/Indicator: TA100, Metabolic Activation: NONE, Method: PREINCUBATION",inactive; negative
same,mutagenic call,"Test System: AMES SALMONELLA TYPHIMURIUM, Strain/Indicator: TA100, Metabolic Activation: NONE, Method: STANDARD PLATE",inactive; negative
same,mutagenic call,"Test System: AMES SALMONELLA TYPHIMURIUM, Strain/Indicator: TA100, Metabolic Activation: RAT LIVER S-9, AROCLOR 1254 (10 OR 30%), Method: PREINCUBATION",inactive; negative
same,mutagenic call,"Test System: AMES SALMONELLA TYPHIMURIUM, Strain/Indicator: TA100, Metabolic Activation: RAT, LIVER, S-9, AROCLOR 1254 (10%), Method: PREINCUBATION",inactive; negative
same,mutagenic call,"Test System: AMES SALMONELLA TYPHIMURIUM, Strain/Indicator: TA100, Metabolic Activation: RAT, LIVER, S-9, AROCLOR 1254 (30%), Method: PREINCUBATION",inactive; negative
same,mutagenic call,"Test System: AMES SALMONELLA TYPHIMURIUM, Strain/Indicator: TA100, Metabolic Activation: RAT, LIVER, S-9, AROCLOR 1254, Method: STANDARD PLATE",inactive; negative
same,mutagenic call,"Test System: AMES SALMONELLA TYPHIMURIUM, Strain/Indicator: TA100, Metabolic Activation: RAT, LIVER, S-9, PHENOBARBITAL AND 5,6-BENZOFLAVONE, Method: PREINCUBATION",inactive; negative
same,mutagenic call,"Test System: AMES SALMONELLA TYPHIMURIUM, Strain/Indicator: TA100, Metabolic Activation: S-9, Method: STANDARD PLATE",inactive; negative
same,mutagenic call,"Test System: AMES SALMONELLA TYPHIMURIUM, Strain/Indicator: TA102, Metabolic Activation: HAMSTER, LIVER, S-9, SODIUM PHENOBARBITAL AND 5,6-BENZOFLAVONE, Method: PREINCUBATION",inactive; negative
same,mutagenic call,"Test System: AMES SALMONELLA TYPHIMURIUM, Strain/Indicator: TA102, Metabolic Activation: NONE, Method: PREINCUBATION",inactive; negative
same,mutagenic call,"Test System: AMES SALMONELLA TYPHIMURIUM, Strain/Indicator: TA102, Metabolic Activation: NONE, Method: STANDARD PLATE",inactive; negative
same,mutagenic call,"Test System: AMES SALMONELLA TYPHIMURIUM, Strain/Indicator: TA102, Metabolic Activation: S-9, Method: STANDARD PLATE",inactive; negative

# — PubChem BioAssay AID1259407 (Chemical Carcinogenesis Research Information System (CCRIS), 2018)
